# Experiments:
# [1] = Taxol release from the prodrug in plasma, methylene chloride extraction and HPLC; assay type: in vitro ADME, human
# Experimental: (§1) Due to a difference in retention time using our standard HPLC conditions (see Fig. 1) and differing ultraviolet absorption maxima (1280/1254 = 1.6 for 2 and 0.3 for 1), the stability of 2 was easily assayed by HPLC (Fig. 1). […] In phosphate buffered saline (PBS) or ammonium acetate - phosphate buffer systems of pH 6.0 to 7.3, 2 is stable at 25 °C for over 21 days. Taxol-2'-MPT (2) is, however, unstable in 5% HCl (pH 1.1) and brine.
# (§2) Under these conditions 20% of total is recovered. More particularly, Taxol-2'-MPT (2) was dissolved in the aqueous system with the aid of sonication for five minutes. Aliquots were then removed at the times shown and partitioned into methylene chloride to quench the reaction. Samples were then analyzed using a Waters Maxima HPLC instrument equipped with an autoinjector (3.9x300 mm C18 column equipped with a precolumn. The flow rate was 1.5 mL/minute. The eluent gradient A-B extended over 30 minutes. "A" was 80% 80mM ammonium acetate, pH 6.0. "B" was 100% methanol. An ultraviolet diode array detector was employed. The ratio of compound 2 (Rf 16.2 min.) to taxol (compound 1, Rf 16.8 min.) remaining was determined from the relative areas of the peaks after normalization with previously determined calibration curves.
# [2] = Critical aggregation concentration by UV absorption (optical density) at 340 nm; assay type: physicochemical; details: buffered solutions, absorption at 340 nm
# [3] = Metabolic study using the tritiated compound; assay type: in vivo; details: tritiated 2
# [4] = Stability and taxol release in the solid state and aqueous media, assayed by HPLC; assay type: physicochemical
# Experimental: as §1, §2
# tubulin = assay: Tubulin (microtubule) polymerization-depolymerization measurement, turbidity at 340 nm; assay type: biochemical; details: for calcium chloride promoted depolymerization is suppressed: tubulin 1.0 mg/mL, 1.0 mM GTP, compound 10^-6 M, CaCl2 0.25 mM added after 20 minutes, 37°C
# Experimental: Tubulin polymerization-depolymerization measurements are illustrate in Figure 3. Negative controls are shown with triangles; positive taxol controls are shown with diamonds; and taxol-2'-MPT, i.e., compound 2 is shown with dots.
# More particularly, measurement were performed in 96 well plates at 37°C following the protocol of R. Merlock and W. Wrasidlo (Analytical Biochemistry 1993, in press). Calcium chloride addition is indicated by the arrow. In each case, 1.0 mM GTP was used to promote the initial polymerization of tubulin. Negative control employed tubulin (1.0 mg/mL) alone, CaCl2 (0,25 mM) added after 20 minutes. Positive taxol control employed tubulin (1.0 mg/mL) with taxol (10^-6M) and CaCl2 (0.25mM) added after 20 minutes. The experimental taxol-2'-MPT employed tubulin (1.0 mg/mL) with taxol-2'-MPT (10^-6) and CaCl2 (0.25 mM) added after 20 minutes. Turbidity was measured as optical density at 340 nm using a microplate reader (Molecular Devices Thermomax).
# albumin = albumin (Homo sapiens, UniProt P02768); details: serum; cited from earlier work
# physchem = details: water
# Experimental: The solubility and partition coefficient data for 2 and taxol were determined using an HPLC method.
# Solubility was found by forming a solution in water with the aid of sonication for five minutes, centrifugation of the samples, and injection of the supernatant. The values reported were normalized using calibration curves constructed for both compounds by preparing known concentrations in the range 1 x 10^-6 to 1 x 10^-3 M in methylene chloride and subjecting to HPLC analysis under the same conditions. […] Partition coefficients were determined by dissolving the compound in the organic phase, shaking the resulting solution with water for ten minutes, and analyzing each phase by HPLC as above.
# [5] = in water, 5% dextrose, and 1.5% saline
# Chain of albumin (P02768 25-609): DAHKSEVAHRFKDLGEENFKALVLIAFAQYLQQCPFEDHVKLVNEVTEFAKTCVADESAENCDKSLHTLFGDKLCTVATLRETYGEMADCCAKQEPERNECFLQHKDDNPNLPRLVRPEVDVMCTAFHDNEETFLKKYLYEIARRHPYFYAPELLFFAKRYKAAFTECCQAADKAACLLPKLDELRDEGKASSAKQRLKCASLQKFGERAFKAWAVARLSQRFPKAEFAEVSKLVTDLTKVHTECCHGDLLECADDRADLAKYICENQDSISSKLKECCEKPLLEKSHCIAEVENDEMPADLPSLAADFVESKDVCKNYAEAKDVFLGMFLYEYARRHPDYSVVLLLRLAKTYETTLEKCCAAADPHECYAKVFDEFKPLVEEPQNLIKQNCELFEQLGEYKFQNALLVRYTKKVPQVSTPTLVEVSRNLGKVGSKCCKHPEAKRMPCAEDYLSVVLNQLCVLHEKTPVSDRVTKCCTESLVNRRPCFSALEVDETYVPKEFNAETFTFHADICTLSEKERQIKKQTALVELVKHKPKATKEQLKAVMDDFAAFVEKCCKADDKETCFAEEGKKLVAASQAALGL
SMILES,"stability when incubated with human plasma ([1]; 37°C, human plasma)","complete conversion of 2 into taxol (1) ([1]; plasma treated with compound 2, methylene chloride extraction) [min]",critical concentration (exponential increase in optical density) [2] [µM],excreted through the kidneys [3] [%],stability ([4]; 5% HCl (pH 1.1) and brine),"stability in the solid state ([4]; -80 °C to 25 °C, regardless of inert atmosphere)","stable for ([4]; PBS or ammonium acetate - phosphate buffer systems of pH 6.0 to 7.3, 25 °C)","begins to exhibit slow degradation after [4, 5] [days]","stability [4, 5]","taxol release ([4]; sterile water, pH 6.2 phosphate buffered saline, or 5% dextrose, 25°C, period of 11 minutes)","effect on tubulin-microtubule equilibria (tubulin; buffered aqueous environment of the assay, 2 not converted to taxol)",calcium chloride promoted depolymerization is suppressed (tubulin),bind to albumin in sera (albumin),microtubule stabilization (tubulin; taxol recovered from human plasma treated with 2),solubility (physchem) [µM],Partition Coefficient [octanol]/[water]
"CC(=O)O[C@H]1C(=O)[C@@]2(C)[C@H]([C@H](OC(=O)c3ccccc3)[C@]3(O)C[C@H](OC(=O)[C@H](Oc4cccc[n+]4C)[C@@H](NC(=O)c4ccccc4)c4ccccc4)C(C)=C1C3(C)C)[C@]1(OC(C)=O)CO[C@@H]1C[C@@H]2O [compound 2, Taxol-2'-MPT]",breaks down rapidly,≤ 10,400,5,unstable,completely stable,over 21 days,4,stable for several days,no taxol release is observed,does not affect the tubulin-microtubule equilibria,not,–,–,–,–
"CC(=O)O[C@H]1C(=O)[C@@]2(C)[C@H]([C@H](OC(=O)c3ccccc3)[C@]3(O)C[C@H](OC(=O)[C@H](O)[C@@H](NC(=O)c4ccccc4)c4ccccc4)C(C)=C1C3(C)C)[C@]1(OC(C)=O)CO[C@@H]1C[C@@H]2O [taxol, Taxol]",–,–,–,–,–,–,–,–,–,–,–,suppressed,ca. 85%,exhibited the expected microtubule stabilization,< 1.5,> 10000

# From patent EP0739343B1, “WATER SOLUBLE ONIUM SALT OF TAXO-DITERPENOID” (THE SCRIPPS RESEARCH INSTITUTE, priority 1994, dated 1995)
